# Test results as given in patent publication US20170216360A1, “METHODS AND COMPOSITIONS FOR IMPROVING HOMING OF CELLS INCLUDING MESENCHYMAL STEM CELLS” (SANOFI, priority 2014, published 2017).
# Where a name gives a salt, the structure may show the parent alone.
# Tests used:
# Type in all cases: cell-based, human
# [1] = tested on: MSC firm adhesion to E-selectin-coated surface; experiment: E-selectin firm adhesion assay under shear flow, with antibody blocking; details: 3 μM for 24 h
# Protocol: Cell adhesion experiments were performed using Bioflux1000 (FluxionBio), allowing accurate control over shear flow. A special 48-well plate was used, in which a microfluidic channel (350 μm×70 μm) connects each pair of adjacent wells (termed inlet and outlet wells). The plate was placed under vacuum and the channels were coated from the inlet with recombinant human E-selectin (5 μg/mL) or ICAM-1 (5 μg/mL) and incubated at 37° C. for 1 h. Prior to introducing the cells into the channel, a wash with PBS−/− from the outlet well was performed for 5 min. Compound-pretreated MSCs were introduced into the channel, followed by attachment period of 2 minutes (no flow applied during the attachment period). Attached cells were then subjected to increasing shear flow, ranging from 0.25 dynes/cm^2 for up to 10 dynes/cm^2. Images were acquired using the Montage software and cell adhesion to the coated channels following subjection to shear flow was examined. See also disclosure elsewhere herein.
# Pre-confluent MSCs were incubated for 24 hours with the indicated small molecules (3 μM). MSCs were than detached, washed and incubated for 30 minutes with an antibody reagent. The following antibodies are used: anti-human CD11a (clone: HI111), anti-human CD90 (clone: MAB2067), mouse anti-human CD11a (clone: TS1/22), and mouse IgG1 isotype control. Cells were then introduced into the channel and given 2 minutes to adhere before being subjected to increasing shear flow for a firm adhesion assay on a microfluidic channel coated with E-selectin or ICAM-1.
# 1. Obtain preferred channel coating (protein/cell monolayer). 2. Prepare cell suspension (same concentrations detailed above for different cell types). 3. Add 50 μl of cell suspension to outlet well. 4. Introduce cells into channel by applying shear force of 2 dynes/cm^2 (cells should be observed within 10-15 sec flowing from outlet to inlet). 5. Once cells are observed in the channel, stop the flow and allow the introduced cells to sit for different time periods ranging from 30 seconds to 5 minutes. 6. Following this settling period, apply shear force starting from 0.5 dynes/cm^2 up to 10 dynes/cm^2 and acquire videos using stream acquisition. 7. Cell quantification is then performed using the Montage software—percentage of cells adhered, rolled or washed away after applying shear flow should be quantified.
# MSCs = experiment: Cell viability assay, XTT
# Protocol: Pre-confluent MSCs were incubated with Ro-31-8425 at the indicated concentrations for 24 h or 72 h and cell viability was assessed via an XTT assay according to manufacturer's instructions (ATCC).
# MSCs were pretreated with Ro-31-8425 for 24 h or 72 h, followed by quantification of MSC viability via XTT. (Y axis presents the percentage of viable cells compared to untreated control (cells incubated with 10% FBS-supplemented MEMa media), error bars represent standard deviation, n=3).
# CD11a mRNA = CD11a mRNA analysis by qPCR in MSCs; details: 3 μM
# Protocol: (§1) The mRNA levels of CD11a and CD18 in response to Ro-31-8425 pretreatment of MSCs were analyzed by qPCR. Specifically, MSCs were treated with Ro-31-8425 (3 μM) or vehicle control (0.1% DMSO) for 2 h, 4 h, 8 h, 14 h or 24 h. Cells were then trypsinized, washed with ice-cold PBS and pelleted (500 g for 5 min at 4° C.) at during the treatment and immediately stored at −80° C. RNA extraction was then performed. Briefly, the frozen cell pellet was crushed with a tissue pestle (Fisher Scientific) in the presence of 1 mL TRI RNA isolation reagent (Sigma Aldrich). Upon complete pellet dissociation, 0.2 mL chloroform was added and suspension was vortexed for 15 s, followed by incubation at ambient temperature for 10 min. The mixture was centrifuged at 15,000 g for 15 min at […], the resulting supernatant aqueous phase was removed, thoroughly mixed with 0.5 mL isopropanol (Sigma Aldrich) and further centrifuged (at 15,000 g for 10 min) to obtain the total RNA precipitates. The RNA pellets were washed twice in 75% ethanol, and air dried for 10 min at room temperature before being reconstituted with 20 uL ultrapure H2O. The quality and quantity of the total RNAs were measured and verified using Nanodrop ND-2000 Spectrophotometer (NanoDrop Products). Subsequently, equal amount of total RNA (2 μg) was reverse transcribed into cDNA using a QuantiTect reverse transcription kit (Qiagen). […]
# CD18 mRNA = CD18 mRNA analysis by qPCR in MSCs; details: 3 μM
# Protocol: as §1
# [2] = tested on: CD11a surface expression on huMSCs; experiment: Medium throughput screen: CD11a surface expression on MSCs, PE-CY5 anti-CD11a antibody, laser-scanning fluorescence microplate cytometer
# MSC secretome = experiment: Secretomic analysis of small molecule-primed MSCs (Bio-plex immunoassays)
smiles,measurement,setting,value
"CCc1c2c(nc3ccc(OC(=O)N4CCC(N5CCCCC5)CC4)cc13)-c1cc3c(c(=O)n1C2)COC(=O)[C@]3(O)CC [Compound 1927, reference compound]",Effect of antibody blocking of CD11a or CD90 on firm adhesion,[1]; E-selectin,no effect
same,"MSC firm adhesion to E-selectin-coated substrates, result in words",[1]; vs vehicle-treated MSCs,did not improve
"Cn1cc(C2=C(c3c4n(c5ccccc35)CCC(CN)C4)C(=O)NC2=O)c2ccccc21 (stereo not drawn) [Compound 1929, 3-(8-aminomethyl-6,7,8,9-tetrahydro-pyrido[1,2-a]indol-10-yl)-4-(1-methyl-1H-indol-3-yl)-pyrrole-2,5-dione hydrochloride]",Adhered cells on E-selectin-coated surface before CD11a blocking,[1],~90%
same,Firm adhesion to E-selectin of pretreated MSC compared to control MSCs,[1],3 fold
same,Adhered cells on E-selectin-coated surface following CD11a blocking,[1]; CD11a blocking antibody 30 minutes,50%
same,Effect of antibody blocking of CD90 on firm adhesion,[1]; E-selectin,no effect
same,MSC viability,"MSCs; 0.25 to 4 μM, 24 h pretreatment",did not significantly compromise cell viability
same,Concentration levels at which toxicity to MSCs was seen,MSCs; 72 h pretreatment,greater than 4 μM
same,CD11a mRNA levels in MSCs,CD11a mRNA,significantly increased
same,Time of peak CD11a mRNA levels post incubation,CD11a mRNA,14 h
same,mRNA levels of CD18 in MSCs,CD18 mRNA,did not upregulate
same,Effect on the expression of other homing ligands,[2],no observed effect
same,"Number of analytes with statistically significant changes, out of 48 secreted factors",MSC secretome,3
same,Mean of [IFN-g],"MSC secretome; 0.3 μM, 24 h, MSC donor 318006",11.0 pg/mL
same,Mean of [IL-1ra],"MSC secretome; 0.3 μM, 24 h, MSC donor 318006",16.5 pg/mL
same,Mean of [IL-6],"MSC secretome; 0.3 μM, 24 h, MSC donor 318006",451.3 pg/mL
same,Mean of [IL-8],"MSC secretome; 0.3 μM, 24 h, MSC donor 318006",26.9 pg/mL
same,Mean of [IL-12p70],"MSC secretome; 0.3 μM, 24 h, MSC donor 318006",13.3 pg/mL
same,Mean of [LIF],"MSC secretome; 0.3 μM, 24 h, MSC donor 318006",14.2 pg/mL
same,Mean of [MCP-1],"MSC secretome; 0.3 μM, 24 h, MSC donor 318006",26.4 pg/mL
same,Mean of [MIF],"MSC secretome; 0.3 μM, 24 h, MSC donor 318006",54.9 pg/mL
same,Mean of [VEGF],"MSC secretome; 0.3 μM, 24 h, MSC donor 318006",547.2 pg/mL
same,Mean of [IL-1ra],"MSC secretome; 3 μM, 24 h, MSC donor 318006",22.6 pg/mL
same,Mean of [LIF],"MSC secretome; 3 μM, 24 h, MSC donor 318006",10.8 pg/mL
same,Mean of [MIF],"MSC secretome; 3 μM, 24 h, MSC donor 318006",69.4 pg/mL
same,IL-8 level secreted by MSC,MSC secretome; 3 micromolar for 24 hours,downregulation
same,MCP-1 level secreted by MSC,MSC secretome; 3 micromolar for 24 hours,downregulation
same,SDF-1alpha level secreted by MSC,MSC secretome; 3 micromolar for 24 hours,upregulation
same,Fold change of analyte IL-6 upon pretreatment (vs. vehicle control),MSC secretome; MSC secretome,0.34 +/− 0.09
same,Fold change of analyte MCP-1 upon pretreatment (vs. vehicle control),MSC secretome; MSC secretome,0.54 +/− 0.09
